{"source": "ChEMBL document CHEMBL1201862", "about": "“PubChem BioAssay data set” (2004)", "assay_in_all_cases": "NCI-60 cell line screen, 48 h", "key": {"A498": {"tested_on": "A498"}, "BT-549": {"tested_on": "BT-549"}, "CAKI-1": {"tested_on": "CAKI-1"}, "DMS-114": {"tested_on": "DMS-114"}, "DU-145": {"tested_on": "DU-145"}, "EKVX": {"tested_on": "EKVX"}, "HCC 2998": {"tested_on": "HCC 2998"}, "HOP-18": {"tested_on": "HOP-18"}, "HOP-92": {"tested_on": "HOP-92"}, "Hs-578T": {"tested_on": "Hs-578T"}, "MCF7": {"tested_on": "MCF7"}, "MDA-MB-231": {"tested_on": "MDA-MB-231"}, "MDA-MB-435": {"tested_on": "MDA-MB-435"}, "MDA-N": {"tested_on": "MDA-N"}, "NCI-H226": {"tested_on": "NCI-H226"}, "NCI/ADR-RES": {"tested_on": "NCI/ADR-RES"}, "OVCAR-4": {"tested_on": "OVCAR-4"}, "OVCAR-5": {"tested_on": "OVCAR-5"}, "PC-3": {"tested_on": "PC-3"}, "RXF 631": {"tested_on": "RXF 631"}, "SK-MEL-2": {"tested_on": "SK-MEL-2"}, "SK-MEL-5": {"tested_on": "SK-MEL-5"}, "SNB-75": {"tested_on": "SNB-75"}, "SNB-78": {"tested_on": "SNB-78"}, "T47D": {"tested_on": "T47D"}, "XF498": {"tested_on": "XF498"}, "786-0": {"tested_on": "786-0"}, "A549": {"tested_on": "A549"}, "ACHN": {"tested_on": "ACHN"}, "CCRF-CEM": {"tested_on": "CCRF-CEM"}, "COLO 205": {"tested_on": "COLO 205"}, "DLD-1": {"tested_on": "DLD-1"}, "DMS-273": {"tested_on": "DMS-273"}, "HCT-116": {"tested_on": "HCT-116"}, "HCT-15": {"tested_on": "HCT-15"}, "HL-60": {"tested_on": "HL-60"}, "HOP-62": {"tested_on": "HOP-62"}, "HT-29": {"tested_on": "HT-29"}, "IGROV-1": {"tested_on": "IGROV-1"}, "K562": {"tested_on": "K562"}, "KM-20L2": {"tested_on": "KM-20L2"}, "KM12": {"tested_on": "KM12"}, "LOX IMVI": {"tested_on": "LOX IMVI"}, "LXFL 529": {"tested_on": "LXFL 529"}, "M14": {"tested_on": "M14"}, "M19-MEL": {"tested_on": "M19-MEL"}, "MOLT-4": {"tested_on": "MOLT-4"}, "Malme-3M": {"tested_on": "Malme-3M"}, "NCI-H23": {"tested_on": "NCI-H23"}, "NCI-H460": {"tested_on": "NCI-H460"}, "OVCAR-3": {"tested_on": "OVCAR-3"}, "OVCAR-8": {"tested_on": "OVCAR-8"}, "RPMI-8226": {"tested_on": "RPMI-8226"}, "RXF 393": {"tested_on": "RXF 393"}, "SF-268": {"tested_on": "SF-268"}, "SF-295": {"tested_on": "SF-295"}, "SF-539": {"tested_on": "SF-539"}, "SK-MEL-28": {"tested_on": "SK-MEL-28"}, "SK-OV-3": {"tested_on": "SK-OV-3"}, "SN12C": {"tested_on": "SN12C"}, "SNB-19": {"tested_on": "SNB-19"}, "SW-620": {"tested_on": "SW-620"}, "TK-10": {"tested_on": "TK-10"}, "U-251": {"tested_on": "U-251"}, "UACC-257": {"tested_on": "UACC-257"}, "UACC-62": {"tested_on": "UACC-62"}}, "note": "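Exposure lasted 48 hours, with cells grown in 96-well plates and compounds tested at five concentrations. GI50 is the concentration that inhibits growth by half.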 Activity calls are given as the source filed them. Rule as the data show it: active = GI50 up to about 1.1 µM and inactive = higher.", "data": [{"smiles": "CC(C)=CCC1=C(O)C(=O)c2ccccc2C1=O", "note": "[LAPACHOL]", "values": [{"measurement": "GI50", "setting": "A498", "result": "60.4 µM (inactive)"}, {"measurement": "GI50", "setting": "BT-549", "result": "51.8 µM (inactive)"}, {"measurement": "GI50", "setting": "CAKI-1", "result": "55 µM (inactive)"}, {"measurement": "GI50", "setting": "DMS-114", "result": "60.3 µM (inactive)"}, {"measurement": "GI50", "setting": "DU-145", "result": "36.9 µM (inactive)"}, {"measurement": "GI50", "setting": "EKVX", "result": "78.7 µM (inactive)"}, {"measurement": "GI50", "setting": "HCC 2998", "result": "86.3 µM (inactive)"}, {"measurement": "GI50", "setting": "HOP-18", "result": "15.2 µM (inactive)"}, {"measurement": "GI50", "setting": "HOP-92", "result": "79.6 µM (inactive)"}, {"measurement": "GI50", "setting": "Hs-578T", "result": "34.8 µM (inactive)"}, {"measurement": "GI50", "setting": "MCF7", "result": "24.4 µM (inactive)"}, {"measurement": "GI50", "setting": "MDA-MB-231", "result": "8.53 µM (inactive)"}, {"measurement": "GI50", "setting": "MDA-MB-435", "result": "18.5 µM (inactive)"}, {"measurement": "GI50", "setting": "MDA-N", "result": "17.4 µM (inactive)"}, {"measurement": "GI50", "setting": "NCI-H226", "result": "53.8 µM (inactive)"}, {"measurement": "GI50", "setting": "NCI/ADR-RES", "result": "32.3 µM (inactive)"}, {"measurement": "GI50", "setting": "OVCAR-4", "result": "33.7 µM (inactive)"}, {"measurement": "GI50", "setting": "OVCAR-5", "result": "> 100 µM (inactive)"}, {"measurement": "GI50", "setting": "PC-3", "result": "2.92 µM (inactive)"}, {"measurement": "GI50", "setting": "RXF 631", "result": "22.2 µM (inactive)"}, {"measurement": "GI50", "setting": "SK-MEL-2", "result": "35.5 µM (inactive)"}, {"measurement": "GI50", "setting": "SK-MEL-5", "result": "11.7 µM (inactive)"}, {"measurement": "GI50", "setting": "SNB-75", "result": "57.1 µM (inactive)"}, {"measurement": "GI50", "setting": "SNB-78", "result": "> 100 µM (inactive)"}, {"measurement": "GI50", "setting": "T47D", "result": "61.4 µM (inactive)"}, {"measurement": "GI50", "setting": "XF498", "result": "42.4 µM (inactive)"}]}, {"smiles": "CCOc1cc(/C=C/C=C/c2ccc(N(C)C)cc2)[s+]c2ccccc12", "values": [{"measurement": "GI50", "setting": "786-0", "result": "19 µM (inactive)"}, {"measurement": "GI50", "setting": "A498", "result": "28.2 µM (inactive)"}, {"measurement": "GI50", "setting": "A549", "result": "11.4 µM (inactive)"}, {"measurement": "GI50", "setting": "ACHN", "result": "30.5 µM (inactive)"}, {"measurement": "GI50", "setting": "CAKI-1", "result": "23.7 µM (inactive)"}, {"measurement": "GI50", "setting": "CCRF-CEM", "result": "3.38 µM (inactive)"}, {"measurement": "GI50", "setting": "COLO 205", "result": "34.9 µM (inactive)"}, {"measurement": "GI50", "setting": "DLD-1", "result": "23.9 µM (inactive)"}, {"measurement": "GI50", "setting": "DMS-114", "result": "5.27 µM (inactive)"}, {"measurement": "GI50", "setting": "DMS-273", "result": "9.31 µM (inactive)"}, {"measurement": "GI50", "setting": "EKVX", "result": "34.5 µM (inactive)"}, {"measurement": "GI50", "setting": "HCC 2998", "result": "59.6 µM (inactive)"}, {"measurement": "GI50", "setting": "HCT-116", "result": "21.7 µM (inactive)"}, {"measurement": "GI50", "setting": "HCT-15", "result": 13.8, "unit": "µM"}, {"measurement": "GI50", "setting": "HL-60", "result": "0.857 µM (active)"}, {"measurement": "GI50", "setting": "HOP-18", "result": "99.1 µM (inactive)"}, {"measurement": "GI50", "setting": "HOP-62", "result": "7.71 µM (inactive)"}, {"measurement": "GI50", "setting": "HOP-92", "result": "23.5 µM (inactive)"}, {"measurement": "GI50", "setting": "HT-29", "result": "35.8 µM (inactive)"}, {"measurement": "GI50", "setting": "IGROV-1", "result": "21.6 µM (inactive)"}, {"measurement": "GI50", "setting": "K562", "result": "4.85 µM (inactive)"}, {"measurement": "GI50", "setting": "KM-20L2", "result": "71 µM (inactive)"}, {"measurement": "GI50", "setting": "KM12", "result": "17.1 µM (inactive)"}, {"measurement": "GI50", "setting": "LOX IMVI", "result": "15.4 µM (inactive)"}, {"measurement": "GI50", "setting": "LXFL 529", "result": "12.3 µM (inactive)"}, {"measurement": "GI50", "setting": "M14", "result": "38.7 µM (inactive)"}, {"measurement": "GI50", "setting": "M19-MEL", "result": "26.2 µM (inactive)"}, {"measurement": "GI50", "setting": "MOLT-4", "result": "6.85 µM (inactive)"}, {"measurement": "GI50", "setting": "Malme-3M", "result": "28.9 µM (inactive)"}, {"measurement": "GI50", "setting": "NCI-H23", "result": "34.6 µM (inactive)"}, {"measurement": "GI50", "setting": "NCI-H460", "result": "18.6 µM (inactive)"}, {"measurement": "GI50", "setting": "OVCAR-3", "result": "14.2 µM (inactive)"}, {"measurement": "GI50", "setting": "OVCAR-4", "result": "16 µM (inactive)"}, {"measurement": "GI50", "setting": "OVCAR-5", "result": "> 100 µM (inactive)"}, {"measurement": "GI50", "setting": "OVCAR-8", "result": "25.6 µM (inactive)"}, {"measurement": "GI50", "setting": "RPMI-8226", "result": "3.2 µM (inactive)"}, {"measurement": "GI50", "setting": "RXF 393", "result": "24.2 µM (inactive)"}, {"measurement": "GI50", "setting": "RXF 631", "result": "33 µM (inactive)"}, {"measurement": "GI50", "setting": "SF-268", "result": "18.4 µM (inactive)"}, {"measurement": "GI50", "setting": "SF-295", "result": "33.8 µM (inactive)"}, {"measurement": "GI50", "setting": "SF-539", "result": "14.1 µM (inactive)"}, {"measurement": "GI50", "setting": "SK-MEL-28", "result": "27.2 µM (inactive)"}, {"measurement": "GI50", "setting": "SK-MEL-2", "result": "20.4 µM (inactive)"}, {"measurement": "GI50", "setting": "SK-MEL-5", "result": "11.8 µM (inactive)"}, {"measurement": "GI50", "setting": "SK-OV-3", "result": "34 µM (inactive)"}, {"measurement": "GI50", "setting": "SN12C", "result": "35.8 µM (inactive)"}, {"measurement": "GI50", "setting": "SNB-19", "result": "31.3 µM (inactive)"}, {"measurement": "GI50", "setting": "SNB-75", "result": "28.4 µM (inactive)"}, {"measurement": "GI50", "setting": "SNB-78", "result": "25.5 µM (inactive)"}, {"measurement": "GI50", "setting": "SW-620", "result": "30.7 µM (inactive)"}, {"measurement": "GI50", "setting": "TK-10", "result": "33.2 µM (inactive)"}, {"measurement": "GI50", "setting": "U-251", "result": "5.36 µM (inactive)"}, {"measurement": "GI50", "setting": "UACC-257", "result": "23.3 µM (inactive)"}, {"measurement": "GI50", "setting": "UACC-62", "result": "14.4 µM (inactive)"}, {"measurement": "GI50", "setting": "XF498", "result": "20.8 µM (inactive)"}]}]}
